Assay results from patent publication US9340590B2 (priority 2011, dated 2016).
Read-outs that look alike come from different tables or passages of the source. Positions of bridges follow the written chain, without caps; N, C: chain ends. Non-standard residues stand in square brackets, D forms with d. Residues, ends and D or L forms follow the SMILES beside them. Groups on a side chain read outwards from the residue. *: point of attachment. 1Nal = N[C@@H](Cc1cccc2ccccc12)C(=O)O; Lys(Me2) = CN(C)CCCC[C@H](N)C(=O)O; Pent4ynoyl = C#CCCC(=O)*; Pra = C#CC[C@H](N)C(=O)O; Nva = CCC[C@H](N)C(=O)O; Abu = CC[C@H](N)C(=O)O; Sar = CNCC(=O)O

Legend:
[1] = target: hNav1.7 (Homo sapiens, UniProt Q15858); assay: cell-based
Sequence of hNav1.7 (Q15858 whole entry, looked up): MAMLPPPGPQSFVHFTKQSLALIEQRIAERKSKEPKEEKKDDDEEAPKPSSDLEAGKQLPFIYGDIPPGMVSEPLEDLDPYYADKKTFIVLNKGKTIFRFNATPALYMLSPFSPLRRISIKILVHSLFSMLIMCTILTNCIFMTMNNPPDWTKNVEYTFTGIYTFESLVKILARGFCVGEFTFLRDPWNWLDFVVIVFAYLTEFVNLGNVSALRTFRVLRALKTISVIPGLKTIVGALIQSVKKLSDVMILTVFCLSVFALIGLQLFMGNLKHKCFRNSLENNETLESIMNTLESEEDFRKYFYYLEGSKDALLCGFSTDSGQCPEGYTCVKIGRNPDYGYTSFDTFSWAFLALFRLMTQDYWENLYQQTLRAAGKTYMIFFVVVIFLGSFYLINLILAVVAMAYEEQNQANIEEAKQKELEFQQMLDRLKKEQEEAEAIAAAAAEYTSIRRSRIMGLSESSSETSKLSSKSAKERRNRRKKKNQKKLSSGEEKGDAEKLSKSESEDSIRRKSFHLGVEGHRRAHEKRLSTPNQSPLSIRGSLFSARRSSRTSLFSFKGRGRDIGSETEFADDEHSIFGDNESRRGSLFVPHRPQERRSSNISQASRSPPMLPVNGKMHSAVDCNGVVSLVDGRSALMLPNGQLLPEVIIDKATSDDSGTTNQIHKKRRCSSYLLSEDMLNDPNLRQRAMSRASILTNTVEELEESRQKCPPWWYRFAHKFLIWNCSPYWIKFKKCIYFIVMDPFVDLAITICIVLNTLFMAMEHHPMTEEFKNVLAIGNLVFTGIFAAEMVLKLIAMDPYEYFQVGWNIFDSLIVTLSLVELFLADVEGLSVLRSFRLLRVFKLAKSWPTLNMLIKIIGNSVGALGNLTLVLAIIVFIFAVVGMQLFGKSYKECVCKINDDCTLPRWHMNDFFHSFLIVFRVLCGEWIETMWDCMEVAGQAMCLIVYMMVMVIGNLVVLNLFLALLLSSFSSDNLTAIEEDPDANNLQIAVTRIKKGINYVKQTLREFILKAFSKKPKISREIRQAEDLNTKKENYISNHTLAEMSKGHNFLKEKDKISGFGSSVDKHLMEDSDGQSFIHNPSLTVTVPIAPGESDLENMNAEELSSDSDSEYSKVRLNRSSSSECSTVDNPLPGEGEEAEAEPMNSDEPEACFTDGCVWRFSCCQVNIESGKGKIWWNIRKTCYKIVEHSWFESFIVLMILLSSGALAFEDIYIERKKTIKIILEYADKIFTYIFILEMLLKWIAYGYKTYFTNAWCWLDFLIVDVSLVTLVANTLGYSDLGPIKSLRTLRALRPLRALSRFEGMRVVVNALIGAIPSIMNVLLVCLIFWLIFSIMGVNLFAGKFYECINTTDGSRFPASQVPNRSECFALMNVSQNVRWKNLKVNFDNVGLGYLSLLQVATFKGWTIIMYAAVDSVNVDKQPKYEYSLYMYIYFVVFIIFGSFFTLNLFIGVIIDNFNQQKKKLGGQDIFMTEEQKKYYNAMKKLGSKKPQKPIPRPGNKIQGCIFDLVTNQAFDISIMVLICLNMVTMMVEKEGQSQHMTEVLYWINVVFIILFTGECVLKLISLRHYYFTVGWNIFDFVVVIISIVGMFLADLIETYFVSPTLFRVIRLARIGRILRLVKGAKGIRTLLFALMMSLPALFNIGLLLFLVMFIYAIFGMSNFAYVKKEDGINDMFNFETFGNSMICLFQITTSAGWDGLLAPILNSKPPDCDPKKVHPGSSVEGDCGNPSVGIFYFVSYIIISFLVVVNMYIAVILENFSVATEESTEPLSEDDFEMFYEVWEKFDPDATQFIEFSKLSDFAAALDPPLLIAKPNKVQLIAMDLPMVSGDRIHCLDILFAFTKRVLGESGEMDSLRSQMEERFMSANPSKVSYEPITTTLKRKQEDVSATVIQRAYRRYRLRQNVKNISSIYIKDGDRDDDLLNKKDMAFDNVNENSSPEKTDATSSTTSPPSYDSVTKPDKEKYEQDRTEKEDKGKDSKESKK

[2] = target: hNav1.5 (Homo sapiens, UniProt Q14524); assay: cell-based
Sequence of hNav1.5 (Q14524 whole entry, looked up): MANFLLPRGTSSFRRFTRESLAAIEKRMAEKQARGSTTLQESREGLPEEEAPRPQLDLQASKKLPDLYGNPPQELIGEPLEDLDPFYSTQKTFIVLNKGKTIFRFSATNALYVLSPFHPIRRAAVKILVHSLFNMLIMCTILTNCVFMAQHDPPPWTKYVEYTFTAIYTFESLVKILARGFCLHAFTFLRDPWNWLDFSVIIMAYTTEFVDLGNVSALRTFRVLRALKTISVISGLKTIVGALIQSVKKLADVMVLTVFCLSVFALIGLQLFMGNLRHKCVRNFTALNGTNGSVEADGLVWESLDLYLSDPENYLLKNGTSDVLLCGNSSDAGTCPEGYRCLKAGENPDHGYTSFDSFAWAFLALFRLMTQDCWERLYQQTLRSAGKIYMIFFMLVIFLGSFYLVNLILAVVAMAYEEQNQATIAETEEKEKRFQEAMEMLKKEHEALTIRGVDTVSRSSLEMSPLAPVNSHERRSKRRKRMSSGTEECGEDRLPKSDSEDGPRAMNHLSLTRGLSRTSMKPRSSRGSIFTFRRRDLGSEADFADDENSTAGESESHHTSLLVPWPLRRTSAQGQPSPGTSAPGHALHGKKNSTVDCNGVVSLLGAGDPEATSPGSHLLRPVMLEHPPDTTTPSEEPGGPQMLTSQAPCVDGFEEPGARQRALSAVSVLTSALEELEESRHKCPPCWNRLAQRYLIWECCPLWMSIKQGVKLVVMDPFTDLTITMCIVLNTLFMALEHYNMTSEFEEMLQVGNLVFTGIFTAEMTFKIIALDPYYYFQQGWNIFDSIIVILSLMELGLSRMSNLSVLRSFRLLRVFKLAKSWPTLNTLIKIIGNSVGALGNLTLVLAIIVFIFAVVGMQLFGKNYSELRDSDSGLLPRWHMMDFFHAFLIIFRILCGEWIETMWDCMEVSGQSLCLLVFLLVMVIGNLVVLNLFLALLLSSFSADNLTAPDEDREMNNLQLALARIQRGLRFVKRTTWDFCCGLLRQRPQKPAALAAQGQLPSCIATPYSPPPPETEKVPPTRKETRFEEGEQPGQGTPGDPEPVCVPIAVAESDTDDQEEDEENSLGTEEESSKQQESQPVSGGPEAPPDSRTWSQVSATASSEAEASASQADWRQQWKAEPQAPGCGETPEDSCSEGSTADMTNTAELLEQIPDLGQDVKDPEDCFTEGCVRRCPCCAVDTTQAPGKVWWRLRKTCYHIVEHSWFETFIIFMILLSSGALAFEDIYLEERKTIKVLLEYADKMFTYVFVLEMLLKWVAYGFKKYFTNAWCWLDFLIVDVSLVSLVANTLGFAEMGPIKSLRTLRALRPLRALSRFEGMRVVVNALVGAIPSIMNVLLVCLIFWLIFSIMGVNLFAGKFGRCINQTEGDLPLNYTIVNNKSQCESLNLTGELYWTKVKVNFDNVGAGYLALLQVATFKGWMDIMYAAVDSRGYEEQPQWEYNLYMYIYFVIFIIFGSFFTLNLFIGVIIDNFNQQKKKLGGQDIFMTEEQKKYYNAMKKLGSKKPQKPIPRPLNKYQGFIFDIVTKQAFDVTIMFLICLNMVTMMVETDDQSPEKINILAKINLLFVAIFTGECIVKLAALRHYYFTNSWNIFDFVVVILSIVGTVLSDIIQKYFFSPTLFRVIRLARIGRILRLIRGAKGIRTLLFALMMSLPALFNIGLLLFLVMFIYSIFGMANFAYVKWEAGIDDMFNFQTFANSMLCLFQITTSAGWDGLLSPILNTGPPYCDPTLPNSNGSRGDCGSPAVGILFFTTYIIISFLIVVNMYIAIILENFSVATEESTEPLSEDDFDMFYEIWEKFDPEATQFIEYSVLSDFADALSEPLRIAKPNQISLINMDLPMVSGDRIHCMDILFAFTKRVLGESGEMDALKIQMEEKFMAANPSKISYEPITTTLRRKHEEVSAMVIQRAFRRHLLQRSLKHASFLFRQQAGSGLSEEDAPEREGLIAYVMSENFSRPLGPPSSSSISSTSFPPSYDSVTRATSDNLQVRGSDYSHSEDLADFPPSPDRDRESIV

In the case of `CC(C)C[C@@H]1NC(=O)[C@H](C)NC(=O)CNC(=O)[C@H](CC(C)C)NC(=O)[C@@H](NC(=O)[C@@H](N)CC(=O)O)CSSC[C@@H]2NC(=O)[C@@H]3CSSC[C@@H](C(=O)N[C@@H](CCCCN)C(=O)N[C@@H](Cc4ccc(O)cc4)C(=O)N[C@H](C(=O)N[C@@H](Cc4ccccc4)C(N)=O)C(C)C)NC(=O)[C@H](Cc4c[nH]c5ccccc45)NC(=O)[C@H](CCCCN)NC(=O)[C@H](Cc4c[nH]cn4)NC(=O)[C@H]([C@@H](C)O)NC(=O)[C@H](CCCNC(=N)N)NC(=O)[C@H](CO)NC(=O)[C@H](CSSC[C@H](NC(=O)[C@H](CCCCN)NC(=O)[C@H](CCCNC(=N)N)NC1=O)C(=O)N[C@@H](CCC(=O)O)C(=O)N1CCC[C@H]1C(=O)N[C@@H](CC(=O)O)C(=O)N[C@@H](CC(N)=O)C(=O)N[C@@H](CC(=O)O)C(=O)N[C@@H](CCCCN)C(=O)N3)NC(=O)[C@H](C(C)C)NC(=O)[C@H](CC(C)C)NC(=O)[C@H](CC(N)=O)NC(=O)[C@@H]1CCCN1C(=O)[C@H](CCCNC(=N)N)NC2=O` [[Ala5;Leu6;Glu10]GpTx-1(1-34)], the IC50 ([1]; Nav1.7 Use IC50) is reported as 30 nM and the IC50 [2] is reported as > 10000 nM.

With `CC[C@H](C)[C@@H]1NC(=O)[C@@H]2CSSC[C@@H]3NC(=O)[C@H](C(C)C)NC(=O)[C@H](CC(C)C)NC(=O)[C@H](CC(N)=O)NC(=O)[C@@H]4CCCN4C(=O)[C@H](CCCNC(=N)N)NC(=O)[C@H](CSSC[C@H](NC(=O)[C@@H](N)CC(=O)O)C(=O)N[C@@H](CC(C)C)C(=O)NCC(=O)N[C@@H](Cc4ccccc4)C(=O)N[C@@H](CCSC)C(=O)N[C@@H](CCCNC(=N)N)C(=O)N[C@@H](CCCCN)C(=O)N2)NC(=O)[C@H](CSSC[C@@H](C(=O)N[C@@H](CCCCN)C(=O)N[C@@H](Cc2ccc(O)cc2)C(=O)N[C@H](C(=O)N[C@@H](Cc2ccccc2)C(N)=O)C(C)C)NC(=O)[C@H](Cc2c[nH]c4ccccc24)NC(=O)[C@H](CCCCN)NC(=O)[C@H](Cc2c[nH]cn2)NC(=O)[C@H]([C@@H](C)O)NC(=O)[C@H](CCCCN(C)C)NC(=O)[C@H](CO)NC3=O)NC(=O)[C@H](CCCCN)NC(=O)[C@H](CC(=O)O)NC(=O)[C@H](CC(N)=O)NC(=O)[C@H](CC(=O)O)NC(=O)[C@@H]2CCCN2C1=O` [[K(Me2)25]GpTx-1(1-34)] (H-DCLGFMRKCIPDNDKCCRPNLVCS[Lys(Me2)]THKWCKYVF-NH2; disulfide 2-17, 9-23, 16-30) the IC50 ([1]; Nav1.7 Use IC50) was 8 nM and the IC50 [2] was 13300 nM.

In the case of `C#CC[C@H](NC(C)=O)C(=O)NCCCC[C@@H]1NC(=O)[C@H](CC(=O)O)NC(=O)[C@@H]2CCCN2C(=O)[C@H]([C@@H](C)CC)NC(=O)[C@@H]2CSSC[C@@H]3NC(=O)[C@H](C(C)C)NC(=O)[C@H](CC(C)C)NC(=O)[C@H](CC(N)=O)NC(=O)[C@@H]4CCCN4C(=O)[C@H](CCCNC(=N)N)NC(=O)[C@H](CSSC[C@H](NC(=O)[C@@H](N)CC(=O)O)C(=O)N[C@@H](CC(C)C)C(=O)NCC(=O)N[C@@H](C)C(=O)N[C@@H](Cc4ccccc4)C(=O)N[C@@H](CCCNC(=N)N)C(=O)N[C@@H](CCCCN)C(=O)N2)NC(=O)[C@H](CSSC[C@@H](C(=O)N[C@@H](CCCCN)C(=O)N[C@@H](Cc2ccc(O)cc2)C(=O)N[C@H](C(=O)N[C@@H](Cc2ccccc2)C(N)=O)C(C)C)NC(=O)[C@H](Cc2c[nH]c4ccccc24)NC(=O)[C@H](CCCCN)NC(=O)[C@H](Cc2c[nH]cn2)NC(=O)[C@H]([C@@H](C)O)NC(=O)[C@H](CCCNC(=N)N)NC(=O)[C@H](CO)NC3=O)NC(=O)[C@H](CCCCN)NC(=O)[C@H](CC(=O)O)NC1=O` [[Ala5;Phe6;K(Ac-Pra)13]GpTx-1(1-34)] (H-DCLGAFRKCIPDK([Pra-Ac])DKCCRPNLVCSRTHKWCKYVF-NH2; disulfide 2-17, 9-23, 16-30), the IC50 ([1]; Nav1.7 Use IC50) is reported as 11 nM and the IC50 [2] is reported as > 10000 nM.

`CC[C@H](C)[C@@H]1NC(=O)[C@@H]2CSSC[C@@H]3NC(=O)[C@H](C(C)C)NC(=O)[C@H](CC(C)C)NC(=O)[C@H](CC(N)=O)NC(=O)[C@@H]4CCCN4C(=O)[C@H](CCCNC(=N)N)NC(=O)[C@H](CSSC[C@H](NC(=O)[C@@H](N)CC(=O)O)C(=O)N[C@@H](CC(C)C)C(=O)NCC(=O)N[C@@H](Cc4ccccc4)C(=O)N[C@@H](CCSC)C(=O)N[C@@H](CCCNC(=N)N)C(=O)N[C@@H](CCCCN)C(=O)N2)NC(=O)[C@H](CSSC[C@@H](C(=O)N[C@@H](CCCCN)C(=O)N[C@@H](Cc2ccc(O)cc2)C(=O)N[C@H](C(=O)N[C@@H](Cc2ccccc2)C(N)=O)C(C)C)NC(=O)[C@H](Cc2c[nH]c4ccccc24)NC(=O)[C@H](CCCCN)NC(=O)[C@H](Cc2c[nH]cn2)NC(=O)[C@H]([C@@H](C)O)NC(=O)[C@H](CCCNC(=N)N)NC(=O)[C@H](CO)NC3=O)NC(=O)[C@H](CCCCN)NC(=O)[C@H](CC(=O)O)NC(=O)[C@H](Cc2cccc3ccccc23)NC(=O)[C@H](CC(=O)O)NC(=O)[C@@H]2CCCN2C1=O` [[1-Nal13]GpTx-1(1-34)] (H-DCLGFMRKCIPD[1Nal]DKCCRPNLVCSRTHKWCKYVF-NH2; disulfide 2-17, 9-23, 16-30) showed an IC50 ([1]; read-out: Nav1.7 Use IC50) of 2 nM and an IC50 [2] of 7330 nM.

`CC[C@H](C)[C@@H]1NC(=O)[C@@H]2CSSC[C@@H]3NC(=O)[C@H](C(C)C)NC(=O)[C@H](CC(C)C)NC(=O)[C@H](CC(N)=O)NC(=O)[C@@H]4CCCN4C(=O)[C@H](CCCNC(=N)N)NC(=O)[C@H](CSSC[C@H](NC(=O)[C@@H](N)CC(=O)O)C(=O)N[C@@H](CC(C)C)C(=O)NCC(=O)N[C@@H](CC(C)C)C(=O)N[C@@H](CC(C)C)C(=O)N[C@@H](CCCNC(=N)N)C(=O)N[C@@H](CCCCN)C(=O)N2)NC(=O)[C@H](CSSC[C@@H](C(=O)N[C@@H](CCCCN)C(=O)N[C@@H](Cc2ccc(O)cc2)C(=O)N[C@H](C(=O)N[C@@H](Cc2ccccc2)C(N)=O)C(C)C)NC(=O)[C@H](Cc2c[nH]c4ccccc24)NC(=O)[C@H](CCCCN)NC(=O)[C@H](Cc2c[nH]cn2)NC(=O)[C@H]([C@@H](C)O)NC(=O)[C@H](CCCNC(=N)N)NC(=O)[C@H](CO)NC3=O)NC(=O)[C@H](CCCCN)NC(=O)[C@H](CC(=O)O)NC(=O)[C@H](CC(N)=O)NC(=O)[C@H](CC(=O)O)NC(=O)[C@@H]2CCCN2C1=O` [[Leu5,6]GpTx-1(1-34)] (H-DCLGLLRKCIPDNDKCCRPNLVCSRTHKWCKYVF-NH2; disulfide 2-17, 9-23, 16-30) was tested, and the IC50 ([1]; Nav1.7 Use IC50) was 11 nM and the IC50 [2] was > 10000 nM.

In the case of `CC[C@H](C)[C@@H]1NC(=O)[C@@H]2CSSC[C@@H]3NC(=O)[C@H](C(C)C)NC(=O)[C@H](CC(C)C)NC(=O)[C@H](CC(N)=O)NC(=O)[C@@H]4CCCN4C(=O)[C@H](CCCNC(=N)N)NC(=O)[C@H](CSSC[C@H](NC(=O)[C@@H](N)CC(=O)O)C(=O)N[C@@H](CC(C)C)C(=O)NCC(=O)N(C)CC(=O)N[C@@H](Cc4ccccc4)C(=O)N[C@@H](CCCNC(=N)N)C(=O)N[C@@H](CCCCN)C(=O)N2)NC(=O)[C@H](CSSC[C@@H](C(=O)N[C@@H](CCCCN)C(=O)N[C@@H](Cc2ccc(O)cc2)C(=O)N[C@H](C(=O)N[C@@H](Cc2ccccc2)C(N)=O)C(C)C)NC(=O)[C@H](Cc2c[nH]c4ccccc24)NC(=O)[C@H](CCCCN)NC(=O)[C@H](Cc2c[nH]cn2)NC(=O)[C@H]([C@@H](C)O)NC(=O)[C@H](CCCNC(=N)N)NC(=O)[C@H](CO)NC3=O)NC(=O)[C@H](CCCCN)NC(=O)[C@H](CC(=O)O)NC(=O)[C@H](CC(N)=O)NC(=O)[C@H](CC(=O)O)NC(=O)[C@@H]2CCCN2C1=O` [[Sar5;Phe6]GpTx-1(1-34)] (H-DCLG[Sar]FRKCIPDNDKCCRPNLVCSRTHKWCKYVF-NH2; disulfide 2-17, 9-23, 16-30), the IC50 ([1]; Nav1.7 Use IC50) is reported as 25 nM and the IC50 [2] is reported as > 10000 nM.

With `CCC[C@@H]1NC(=O)CNC(=O)[C@H](CC(C)C)NC(=O)[C@@H](NC(=O)[C@@H](N)CC(=O)O)CSSC[C@@H]2NC(=O)[C@@H]3CSSC[C@@H](C(=O)N[C@@H](CCCCN)C(=O)N[C@@H](Cc4ccc(O)cc4)C(=O)N[C@H](C(=O)N[C@@H](Cc4ccccc4)C(N)=O)C(C)C)NC(=O)[C@H](Cc4c[nH]c5ccccc45)NC(=O)[C@H](CCC(=O)O)NC(=O)[C@H](Cc4c[nH]cn4)NC(=O)[C@H]([C@@H](C)O)NC(=O)[C@H](CCCNC(=N)N)NC(=O)[C@H](CO)NC(=O)[C@H](CSSC[C@H](NC(=O)[C@H](CCCCN)NC(=O)[C@H](CCCNC(=N)N)NC(=O)[C@H](CC(C)C)NC1=O)C(=O)N[C@@H]([C@@H](C)CC)C(=O)N1CCC[C@H]1C(=O)N[C@@H](CC(=O)O)C(=O)N[C@@H](CC(N)=O)C(=O)N[C@@H](CC(=O)O)C(=O)N[C@@H](CCCCN)C(=O)N3)NC(=O)[C@H](C(C)C)NC(=O)[C@H](CC(C)C)NC(=O)[C@H](CC(N)=O)NC(=O)[C@@H]1CCCN1C(=O)[C@H](CCCNC(=N)N)NC2=O` [[Nva5;Leu6;Glu28]GpTx-1(1-34)] (H-DCLG[Nva]LRKCIPDNDKCCRPNLVCSRTHEWCKYVF-NH2; disulfide 2-17, 9-23, 16-30) the IC50 ([1]; Nav1.7 Use IC50) was 42 nM and the IC50 [2] was > 10000 nM.

With `C#CCCC(=O)N[C@@H](CC(=O)O)C(=O)N[C@H]1CSSC[C@@H]2NC(=O)[C@@H]3CSSC[C@@H](C(=O)N[C@@H](CCCCN)C(=O)N[C@@H](Cc4ccc(O)cc4)C(=O)N[C@H](C(=O)N[C@@H](Cc4ccccc4)C(N)=O)C(C)C)NC(=O)[C@H](Cc4c[nH]c5ccccc45)NC(=O)[C@H](CCCNC(=N)N)NC(=O)[C@H](Cc4c[nH]cn4)NC(=O)[C@H]([C@@H](C)O)NC(=O)[C@H](CCCNC(=N)N)NC(=O)[C@H](CO)NC(=O)[C@H](CSSC[C@H](NC(=O)[C@H](CCCCN)NC(=O)[C@H](CCCNC(=N)N)NC(=O)[C@H](Cc4ccccc4)NC(=O)[C@H](C)NC(=O)CNC(=O)[C@H](CC(C)C)NC1=O)C(=O)N[C@@H]([C@@H](C)CC)C(=O)N1CCC[C@H]1C(=O)N[C@@H](CC(=O)O)C(=O)N[C@@H](CC)C(=O)N[C@@H](CC(=O)O)C(=O)N[C@@H](CCCCN)C(=O)N3)NC(=O)[C@H](C(C)C)NC(=O)[C@H](CC(C)C)NC(=O)[C@H](CC(N)=O)NC(=O)[C@@H]1CCCN1C(=O)[C@H](CCCNC(=N)N)NC2=O` (Pent4ynoyl-DCLGAFRKCIPD[Abu]DKCCRPNLVCSRTHRWCKYVF-NH2; disulfide 2-17, 9-23, 16-30) the IC50 ([1]; Nav1.7 Use IC50) was 4 nM and the IC50 [2] was > 10000 nM.
